Results from patent publication US7238682B1, “Methods and compositions for degradation and/or inhibition of HER-family tyrosine kinases” (Sloan-Kettering Institute for Cancer Research, priority 1999, dated 2007).
Where two headings read alike, the source gives them in different places.

Assays:
Assay type in all cases: cell-based, human
HER2 = assay: Induction of HER2 degradation in MCF-7 cells (immunoblotting); details: for IC50: MCF-7 cells, 24-hr treatment, amount of drug needed to degrade 50% of the protein, average of three experiments, read-out: IC50 (HER-2)
Protocol: (§1) The human breast cancer cell lines MCF-7 and SKBR-3 were obtained from ATCC (Rockville, Md.), and maintained in DME/F12 (1:1) supplemented with 10% heat-inactivated fetal bovine serum (Gemini Bioproducts), 2 mM glutamine, and 50 units/ml each of penicillin and streptomycin, in a humidified 5% CO2/air atmosphere at 37° C.
(§2) Polyclonal antibodies against HER2 (c-18), Raf-1 (c-12), and P13 kinase (p85) (Z-8) were purchased from Santa Cruz Biotechnology, Inc. A monoclonal antibody against estrogen receptor (clone H-151) was obtained from StressGen Biotechnology Corp. A polyclonal antibody against the β-subunit of IGF-I receptor was kindly provided by Dr. L-H, Wang (Mt. Sinai Medical Center, New York).
(§3) After exposure, cells were washed twice with ice-cold phosphate-buffered saline (PBS), collected by scraping and transferred into microcentrifuge tubes. For immunoblotting (HER2, Raf-1, ER), cells were lysed with SDS lysis buffer (50 mM Tris-HCl, pH 7.5, 2% SDS, 10% glycerol, and 1 mM DTT), boiled for 10 min, and sonicated briefly; for immunoprecipitation (IGF-IR), cells were lysed with NP40 lysis buffer (50 mM Tris-HCl, pH 7.5, 1% Nonidet P-40, 150 mM NaCl, 1 mM Na3VO4, 40 mM NaF, 1 mM phenylmethylsulfonyl fluoride (PMSF) and 10 μg/ml each of aprotinin, leupeptin and soybean trypsin inhibitor) for 20 min at 4° C. Cell lysates were cleared by centrifuging at 14,000×g for 15 min at 4° C. in a microcentrifuge; the supernatants were collected as the experimental samples. Protein concentration in each sample was determined using the BCA kit (Pierce) according to the manufacture's instructions. For detecting IGF-IR, samples were immunoprecipitated with anti-IGF-IR antibody. Immunocomplexes were collected on protein A-Sepharose beads (Pharmacia), washed three times with the lysis buffer. Samples were subjected to SDS-PAGE, electrotransferred to nitrocellulose membranes, detected using the ECL kit (Amersham) according to the manufacturer's protocol, and quantitated using the Gel Doc 1000 (Bio-Rad).

Raf-1 = assay: Induction of Raf-1 degradation in MCF-7 cells (immunoblotting); details: for IC50: MCF-7 cells, 24-hr treatment, amount of drug needed to degrade 50% of the protein, average of three experiments
Protocol: as §1, §2, §3

MCF-7 cells = assay: MCF-7 cell growth inhibition (cell counting); details: MCF-7 cells treated for four days, average of three experiments, read-out: IC50 (growth inh.)
Protocol: as §1
For cell growth experiments, cells were placed in 6-well tissue-culture plates (Corning) at 20,000 cells/well. Two days after plating, cells were treated with different concentrations of drugs or the vehicle DMSO (0.1%). MCF-7 cells were treated for four days; medium with the appropriate drug or vehicle was changed every 2 days; cells were trypsinized, collected and counted on a Coulter counter; IC50 for cell growth is designated as the amount of each drug needed to inhibit MCF-7 growth by 50% compared to the control vehicle.

`COC1C=CC=C(C)C(=O)NC2=CC(=O)C(NCCCCCCCNC3=C4CC(C)CC(OC)C(O)C(C)C=C(C)C(OC(N)=O)CC(OC)C=CC=C(C)C(=O)NC(=CC3=O)C4=O)=C(CC(C)CC(OC)C(O)C(C)C=C(C)C(OC(N)=O)C1)C2=O` (stereo not drawn) [GMD-7c] showed an IC50 (HER2) of 70 nM, an IC50 (Raf-1) of 500 nM and an IC50 (MCF-7 cells; Homo sapiens, MCF7, 96 h) of 600 nM.
`COC1=C2C[C@@H](C)C[C@H](OC)[C@H](O)[C@@H](C)/C=C(\C)[C@H](OC(N)=O)[C@@H](OC)/C=C\C=C(/C)C(=O)NC(=CC1=O)C2=O` [GM, Geldanamycin, reference compound] showed an IC50 (HER2) of 45 nM, an IC50 (Raf-1) of 200 nM and an IC50 (MCF-7 cells; Homo sapiens, MCF7, 96 h) of 25 nM.
For `COC1C=CC=C(C)C(=O)NC2=CC(=O)C(NCCCCCCCCCCCCNC3=C4CC(C)CC(OC)C(O)C(C)C=C(C)C(OC(N)=O)CC(OC)C=CC=C(C)C(=O)NC(=CC3=O)C4=O)=C(CC(C)CC(OC)C(O)C(C)C=C(C)C(OC(N)=O)C1)C2=O` (stereo not drawn) [12 O———O], the IC50 (HER2) was 750 nM, the IC50 (Raf-1) was 3500 nM and the IC50 (MCF-7 cells; Homo sapiens, MCF7, 96 h) was 700 nM.
For `COC1C=CC=C(C)C(=O)NC2=CC(=O)C(NCCCCN)=C(CC(C)CC(OC)C(O)C(C)C=C(C)C1OC(N)=O)C2=O` (stereo not drawn) [ButylaminoGM], the IC50 (HER2) was 80 nM, the “Activity against HER2 (in words)” value (HER2; degradation in MCF-7 cells) was “modestly weaker than GM” and the “Selectivity / specificity for HER-2 over Raf-1” value (HER2; degradation in MCF-7 cells, compared to GM) was “not selective”. For the same compound, the IC50 (Raf-1) was 350 nM, the “Activity against Raf-1 (in words)” value (Raf-1; degradation in MCF-7 cells) was “modestly weaker than GM” and the IC50 (MCF-7 cells) was 600 nM.
Work on `COC1C=CC=C(C)C(=O)NC2=CC(=O)C(NCCCCCCCCCNC3=C4CC(C)CC(OC)C(O)C(C)C=C(C)C(OC(N)=O)CC(OC)C=CC=C(C)C(=O)NC(=CC3=O)C4=O)=C(CC(C)CC(OC)C(O)C(C)C=C(C)C(OC(N)=O)C1)C2=O` (stereo not drawn) [9 O———O] yielded an IC50 (HER2) of 500 nM, an IC50 (Raf-1) of 3800 nM and an IC50 (MCF-7 cells; Homo sapiens, MCF7, 96 h) of 700 nM.
